This assay relates to Human pancreatic cancer cell line AsPC-1. The assay can be described thus: Measurement of AsPC-1 cell growth inhibition (AsPC-1 CGI). The class given is cell-based. The settings on record: 96 h. The method in brief: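 AsPC-1 cells in 15% FBS RPMI-1640 were exposed to test compound for 96 hours at 37° C, with CellTiter-Glo as endpoint.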

Starred links: 1 amine or outer side, 2 acyl side, 3 side chain; linkers in the order of their positions; H or OH if unused. Positions of bridges follow the written chain, without caps; N, C: chain ends. Non-standard residues stand in square brackets, D forms with d. Residues, ends and D or L forms follow the SMILES beside them. *: point of attachment. hPhe(3-Cl-4-CF3) = N[C@@H](CCc1ccc(C(F)(F)F)c(Cl)c1)C(=O)O; NMePhe(4-Me) = CN[C@@H](Cc1ccc(C)cc1)C(=O)O; NMedβ3hAla = C[C@H](CC(=O)[*:2])N(C)[*:1]; NMeGly(cPent) = CN[C@H](C(=O)O)C1CCCC1; NMeCha = CN[C@@H](CC1CCCCC1)C(=O)O; NMeChg = CN[C@H](C(=O)O)C1CCCCC1; NMeF = CN[C@@H](Cc1ccccc1)C(=O)O; NMeI = CC[C@H](C)[C@H](NC)C(=O)O; NMeD = CN[C@@H](CC(=O)O)C(=O)O; NMeL = CN[C@@H](CC(C)C)C(=O)O; NMeNle = CCCC[C@H](NC)C(=O)O; NMeNva = CCC[C@H](NC)C(=O)O; NMeV = CN[C@H](C(=O)O)C(C)C; d(β3hA) = C[C@@H](N)CC(=O)O; NMeAbu = CC[C@H](NC)C(=O)O; NMeS = CN[C@@H](CO)C(=O)O; NMeA = CN[C@@H](C)C(=O)O; Piperidide = C1CCN(*)CC1; Pyrrolidide = C1CCN(*)C1; Ac5c = NC1(C(=O)O)CCCC1; Aze = O=C(O)[C@@H]1CCN1; Ac4c = NC1(C(=O)O)CCC1; Sar = CNCC(=O)O; Propyl = CCC*

As a reminder, the IC50 is the concentration that gives 50% inhibition. The low end stands for higher potency, the high end for lower potency. On to `CC[C@H](C)[C@@H]1NC(=O)[C@H](C)N(C)C(=O)C[C@@H](C)NC(=O)[C@H](C2CCCC2)N(C)C(=O)C2(CCCC2)NC(=O)[C@@H]2CCCN2C(=O)[C@H](CCc2ccc(C(F)(F)F)c(Cl)c2)NC(=O)CN(C)C(=O)[C@H](Cc2ccc(C)cc2)N(C)C(=O)[C@@H]2CCN2C(=O)[C@H](C)N(C)C1=O` [Compound 1514] (cyclo([Ac5c][NMeGly(cPent)][d(β3hA)][NMeA]I[NMeA][Aze][NMePhe(4-Me)][Sar][hPhe(3-Cl-4-CF3)]P)), for which the IC50 was in the range of 100 to 500 nM.

In the case of `CC[C@H](C)[C@@H]1NC(=O)[C@H](CC(C)C)N(C)C(=O)C[C@@H](C(=O)N2CCCCC2)N(C)C(=O)[C@H](C(C)C)N(C)C(=O)C2(CCCC2)NC(=O)[C@@H]2CCCN2C(=O)[C@H](CCc2ccc(C(F)(F)F)c(Cl)c2)NC(=O)CN(C)C(=O)[C@H](CC2CCCCC2)N(C)C(=O)[C@@H]2CCN2C(=O)[C@H](Cc2ccccc2)N(C)C1=O` [Compound 1561] ([NMeL]I[NMeF][Aze][NMeCha][Sar][hPhe(3-Cl-4-CF3)]P[Ac5c][NMeV][NMeD]-Piperidide; lactam N-11), the IC50 was 100 to 500 nM.

Regarding `CCC[C@H]1C(=O)N[C@@H]([C@@H](C)CC)C(=O)N(C)[C@@H](C)C(=O)N2CC[C@H]2C(=O)N(C)[C@@H](CC2CCCCC2)C(=O)N(C)CC(=O)N[C@@H](CCc2ccc(C(F)(F)F)c(Cl)c2)C(=O)N2CCC[C@H]2C(=O)NC2(CCCC2)C(=O)N(C)[C@@H](C(C)C)C(=O)N[C@H](C)CC(=O)N1C` [Compound 1564] (cyclo([Ac5c][NMeV][d(β3hA)][NMeNva]I[NMeA][Aze][NMeCha][Sar][hPhe(3-Cl-4-CF3)]P)), the concentration for half-maximal inhibition (IC50) was in the range of 100 to 500 nM.

On to `CC[C@H](C)[C@@H]1NC(=O)[C@H](CC(C)C)N(C)C(=O)C[C@@H](C(=O)N2CCCCC2)N(C)C(=O)[C@H](C(C)C)N(C)C(=O)C2(CCCC2)NC(=O)[C@@H]2CCCN2C(=O)[C@H](CCc2ccc(C(F)(F)F)c(Cl)c2)NC(=O)CN(C)C(=O)[C@H](CC2CCCCC2)N(C)C(=O)[C@@H]2CCN2C(=O)[C@H](CC)N(C)C1=O` [Compound 1569] ([NMeL]I[NMeAbu][Aze][NMeCha][Sar][hPhe(3-Cl-4-CF3)]P[Ac5c][NMeV][NMeD]-Piperidide; lactam N-11), for which the concentration for half-maximal inhibition (IC50) fell in the range of 100 to 500 nM.

`CCCC[C@H]1C(=O)N2CC[C@H]2C(=O)N(C)[C@@H](CC2CCCCC2)C(=O)N(C)CC(=O)N[C@@H](CCc2ccc(C(F)(F)F)c(Cl)c2)C(=O)N2CCC[C@H]2C(=O)NC2(CCCC2)C(=O)N(C)[C@@H](C(C)C)C(=O)N(C)[C@H](C(=O)N2CCCCC2)CC(=O)N(C)[C@@H](CC(C)C)C(=O)N[C@@H]([C@@H](C)CC)C(=O)N1C` [Compound 1596] ([NMeL]I[NMeNle][Aze][NMeCha][Sar][hPhe(3-Cl-4-CF3)]P[Ac5c][NMeV][NMeD]-Piperidide; lactam N-11) showed an IC50 of 100 to 500 nM.

Regarding `CCC[C@H]1C(=O)N2CC[C@H]2C(=O)N(C)[C@@H](CC2CCCCC2)C(=O)N(C)CC(=O)N[C@@H](CCc2ccc(C(F)(F)F)c(Cl)c2)C(=O)N2CCC[C@H]2C(=O)NC2(CCCC2)C(=O)N(C)[C@@H](C(C)C)C(=O)N(C)[C@H](C(=O)N2CCCCC2)CC(=O)N(C)[C@@H](CC(C)C)C(=O)N[C@@H]([C@@H](C)CC)C(=O)N1C` [Compound 1601] ([NMeL]I[NMeNva][Aze][NMeCha][Sar][hPhe(3-Cl-4-CF3)]P[Ac5c][NMeV][NMeD]-Piperidide; lactam N-11), the IC50 was in the range of 100 to 500 nM.

`CCCC[C@H]1C(=O)N[C@@H]([C@@H](C)CC)C(=O)N(C)[C@@H](C)C(=O)N2CC[C@H]2C(=O)N(C)[C@@H](CC2CCCCC2)C(=O)N(C)CC(=O)N[C@@H](CCc2ccc(C(F)(F)F)c(Cl)c2)C(=O)N2CCC[C@H]2C(=O)NC2(CCCC2)C(=O)N(C)[C@@H](C(C)C)C(=O)N(C)[C@H](C(=O)N2CCCCC2)CC(=O)N1C` [Compound 1616] ([NMeNle]I[NMeA][Aze][NMeCha][Sar][hPhe(3-Cl-4-CF3)]P[Ac5c][NMeV][NMeD]-Piperidide; lactam N-11) gave an IC50 of 100 to 500 nM.

Take `CC[C@H](C)[C@@H]1NC(=O)[C@H](CC)N(C)C(=O)C[C@@H](C(=O)N2CCCCC2)N(C)C(=O)[C@H](C(C)C)N(C)C(=O)C2(CCCC2)NC(=O)[C@@H]2CCCN2C(=O)[C@H](CCc2ccc(C(F)(F)F)c(Cl)c2)NC(=O)CN(C)C(=O)[C@H](CC2CCCCC2)N(C)C(=O)[C@@H]2CCN2C(=O)[C@H](C)N(C)C1=O` [Compound 1638] ([NMeAbu]I[NMeA][Aze][NMeCha][Sar][hPhe(3-Cl-4-CF3)]P[Ac5c][NMeV][NMeD]-Piperidide; lactam N-11): the IC50 fell in the range of 100 to 500 nM.

`CCC[C@H]1C(=O)N[C@@H]([C@@H](C)CC)C(=O)N(C)[C@@H](C)C(=O)N2CC[C@H]2C(=O)N(C)[C@@H](CC2CCCCC2)C(=O)N(C)CC(=O)N[C@@H](CCc2ccc(C(F)(F)F)c(Cl)c2)C(=O)N2CCC[C@H]2C(=O)NC2(CCCC2)C(=O)N(C)[C@@H](C(C)C)C(=O)N(C)[C@H](C(=O)N2CCCCC2)CC(=O)N1C` [Compound 1639] ([NMeNva]I[NMeA][Aze][NMeCha][Sar][hPhe(3-Cl-4-CF3)]P[Ac5c][NMeV][NMeD]-Piperidide; lactam N-11): the IC50 lay within 100 to 500 nM.

`CCCOC[C@H]1C(=O)N(C)CC(=O)N[C@@H](CCc2ccc(C(F)(F)F)c(Cl)c2)C(=O)N2CCC[C@H]2C(=O)NC2(CCCC2)C(=O)N(C)[C@@H](C(C)C)C(=O)N(C)[C@H](C(=O)N2CCCCC2)CC(=O)N(C)[C@@H](CC(C)C)C(=O)N[C@@H]([C@@H](C)CC)C(=O)N(C)[C@@H](C)C(=O)N2CC[C@H]2C(=O)N1C` [Compound 1646] ([NMeL]I[NMeA][Aze][NMeS](Propyl)[Sar][hPhe(3-Cl-4-CF3)]P[Ac5c][NMeV][NMeD]-Piperidide; lactam N-11): the IC50 lay in the range of 100 to 500 nM.

The molecule `CC[C@H](C)[C@@H]1NC(=O)[C@H](CC(C)C)N(C)C(=O)C[C@@H](C)N(C)C(=O)[C@H](C(C)C)N(C)C(=O)C2(CCCC2)NC(=O)[C@@H]2CCCN2C(=O)[C@H](CCc2ccc(C(F)(F)F)c(Cl)c2)NC(=O)CN(C)C(=O)[C@H](CC2CCCCC2)N(C)C(=O)[C@@H]2CCN2C(=O)CN(C)C1=O` [Compound 1648] (cyclo([Ac5c][NMeV][NMedβ3hAla][NMeL]I[Sar][Aze][NMeCha][Sar][hPhe(3-Cl-4-CF3)]P)) yielded an IC50 of 100 to 500 nM.

`CC[C@H](C)[C@@H]1NC(=O)[C@H](CC(C)C)N(C)C(=O)C[C@@H](C(=O)N(C)C)N(C)C(=O)[C@H](C(C)C)N(C)C(=O)C2(CCCC2)NC(=O)[C@@H]2CCCN2C(=O)[C@H](CCc2ccc(C(F)(F)F)c(Cl)c2)NC(=O)CN(C)C(=O)[C@H](Cc2ccc(C)cc2)N(C)C(=O)[C@@H]2CCN2C(=O)[C@H](C)N(C)C1=O` [Compound 1653] ([NMeL]I[NMeA][Aze][NMePhe(4-Me)][Sar][hPhe(3-Cl-4-CF3)]P[Ac5c][NMeV][NMeD]-NMe2; lactam N-11) yielded a 50% inhibitory concentration (IC50) of 50 to 100 nM.

`CC[C@H](C)[C@@H]1NC(=O)[C@H](CC(C)C)N(C)C(=O)C[C@@H](C)NC(=O)[C@H]([C@@H](C)CC)N(C)C(=O)C2(CCCC2)NC(=O)[C@@H]2CCCN2C(=O)[C@H](CCc2ccc(C(F)(F)F)c(Cl)c2)NC(=O)CN(C)C(=O)[C@H](CC2CCCCC2)N(C)C(=O)[C@@H]2CCN2C(=O)[C@H](C)N(C)C1=O` [Compound 1654] (cyclo([Ac5c][NMeI][d(β3hA)][NMeL]I[NMeA][Aze][NMeCha][Sar][hPhe(3-Cl-4-CF3)]P)) displayed an IC50 of 50 to 100 nM.

On to `CC[C@H](C)[C@@H]1NC(=O)[C@H](CC(C)C)N(C)C(=O)C[C@@H](C(=O)N2CCCCC2)N(C)C(=O)[C@H](CC(C)C)N(C)C(=O)C2(CCCC2)NC(=O)[C@@H]2CCCN2C(=O)[C@H](CCc2ccc(C(F)(F)F)c(Cl)c2)NC(=O)CN(C)C(=O)[C@H](CC2CCCCC2)N(C)C(=O)[C@@H]2CCN2C(=O)[C@H](C)N(C)C1=O` [Compound 1657] ([NMeL]I[NMeA][Aze][NMeCha][Sar][hPhe(3-Cl-4-CF3)]P[Ac5c][NMeL][NMeD]-Piperidide; lactam N-11), for which the IC50 lay in the range of 100 to 500 nM.

In turn, `CC[C@H](C)[C@@H]1NC(=O)[C@H](CC(C)C)N(C)C(=O)C[C@@H](C(=O)N2CCCC2)N(C)C(=O)[C@H](C(C)C)N(C)C(=O)C2(CCCC2)NC(=O)[C@@H]2CCCN2C(=O)[C@H](CCc2ccc(C(F)(F)F)c(Cl)c2)NC(=O)CN(C)C(=O)[C@H](CC2CCCCC2)N(C)C(=O)[C@@H]2CCN2C(=O)CN(C)C1=O` [Compound 1670] ([NMeL]I[Sar][Aze][NMeCha][Sar][hPhe(3-Cl-4-CF3)]P[Ac5c][NMeV][NMeD]-Pyrrolidide; lactam N-11) registered a half-maximal inhibitory concentration (IC50) of 100 to 500 nM.

Molecule `CC[C@H](C)[C@@H]1NC(=O)[C@H](CC(C)C)N(C)C(=O)C[C@@H](C(=O)N2CCCCC2)N(C)C(=O)[C@H](C(C)C)N(C)C(=O)C2(CCC2)NC(=O)[C@@H]2CCCN2C(=O)[C@H](CCc2ccc(C(F)(F)F)c(Cl)c2)NC(=O)CN(C)C(=O)[C@H](CC2CCCCC2)N(C)C(=O)[C@@H]2CCN2C(=O)[C@H](C)N(C)C1=O` [Compound 1672] ([NMeL]I[NMeA][Aze][NMeCha][Sar][hPhe(3-Cl-4-CF3)]P[Ac4c][NMeV][NMeD]-Piperidide; lactam N-11) showed a half-maximal inhibitory concentration (IC50) of 100 to 500 nM.

`CC[C@H](C)[C@@H]1NC(=O)[C@H](CC(C)C)N(C)C(=O)C[C@@H](C(=O)N(C)C)N(C)C(=O)[C@H](C2CCCCC2)N(C)C(=O)C2(CCCC2)NC(=O)[C@@H]2CCCN2C(=O)[C@H](CCc2ccc(C(F)(F)F)c(Cl)c2)NC(=O)CN(C)C(=O)[C@H](CC2CCCCC2)N(C)C(=O)[C@@H]2CCN2C(=O)[C@H](C)N(C)C1=O` [Compound 1675] ([NMeL]I[NMeA][Aze][NMeCha][Sar][hPhe(3-Cl-4-CF3)]P[Ac5c][NMeChg][NMeD]-NMe2; lactam N-11) returned a 50% inhibitory concentration (IC50) of 20 to 50 nM.

Take `CC[C@H](C)[C@@H]1NC(=O)[C@H](CC(C)C)N(C)C(=O)C[C@@H](C(=O)N2CCCC2)N(C)C(=O)[C@H](C2CCCC2)N(C)C(=O)C2(CCCC2)NC(=O)[C@@H]2CCCN2C(=O)[C@H](CCc2ccc(C(F)(F)F)c(Cl)c2)NC(=O)CN(C)C(=O)[C@H](CC2CCCCC2)N(C)C(=O)[C@@H]2CCN2C(=O)[C@H](C)N(C)C1=O` [Compound 1679] ([NMeL]I[NMeA][Aze][NMeCha][Sar][hPhe(3-Cl-4-CF3)]P[Ac5c][NMeGly(cPent)][NMeD]-Pyrrolidide; lactam N-11): the IC50 fell in the range of 20 to 50 nM.
